In brackets after ≈: the same amount, converted by molar mass.
Assays:
Assay type in all cases: functional
[1] = system: Penicillium; test: Antimicrobial activity against Penicillium wild strain assessed as diameter of growth inhibition zone at 250 ug/ml after 48-96 hr by agar cup diffusion method; conditions: read-out: DIZ
[2] = system: Penicillium; test: Antimicrobial activity against Penicillium wild strain assessed as diameter of growth inhibition zone at 100 ug/ml after 48-96 hr by agar cup diffusion method; conditions: read-out: DIZ
[3] = system: Trichophyton rubrum; test: Antimicrobial activity against Trichophyton rubrum MTCC 296 assessed as diameter of growth inhibition zone at 100 ug/ml after 48-96 hr by agar cup diffusion method; conditions: read-out: DIZ
[4] = system: Aspergillus clavatus; test: Antimicrobial activity against Aspergillus clavatus MTCC 1323 assessed as diameter of growth inhibition zone at 100 ug/ml after 48-96 hr by agar cup diffusion method; conditions: read-out: DIZ
[5] = system: Candida albicans; test: Antimicrobial activity against Candida albicans MTCC 227 assessed as diameter of growth inhibition zone at 100 ug/ml after 48-96 hr by agar cup diffusion method; conditions: read-out: DIZ
[6] = system: Penicillium; test: Antimicrobial activity against Penicillium wild strain assessed as diameter of growth inhibition zone at 50 ug/ml after 48-96 hr by agar cup diffusion method; conditions: read-out: DIZ
[7] = system: Trichophyton rubrum; test: Antimicrobial activity against Trichophyton rubrum MTCC 296 assessed as diameter of growth inhibition zone at 50 ug/ml after 48-96 hr by agar cup diffusion method; conditions: read-out: DIZ
[8] = system: Aspergillus clavatus; test: Antimicrobial activity against Aspergillus clavatus MTCC 1323 assessed as diameter of growth inhibition zone at 50 ug/ml after 48-96 hr by agar cup diffusion method; conditions: read-out: DIZ
[9] = system: Candida albicans; test: Antimicrobial activity against Candida albicans MTCC 227 assessed as diameter of growth inhibition zone at 50 ug/ml after 48-96 hr by agar cup diffusion method; conditions: read-out: DIZ
[10] = system: Penicillium; test: Antimicrobial activity against Penicillium wild strain assessed as diameter of growth inhibition zone at 25 ug/ml after 48-96 hr by agar cup diffusion method; conditions: read-out: DIZ
[11] = system: Trichophyton rubrum; test: Antimicrobial activity against Trichophyton rubrum MTCC 296 assessed as diameter of growth inhibition zone at 25 ug/ml after 48-96 hr by agar cup diffusion method; conditions: read-out: DIZ
[12] = system: Aspergillus clavatus; test: Antimicrobial activity against Aspergillus clavatus MTCC 1323 assessed as diameter of growth inhibition zone at 25 ug/ml after 48-96 hr by agar cup diffusion method; conditions: read-out: DIZ
[13] = system: Candida albicans; test: Antimicrobial activity against Candida albicans MTCC 227 assessed as diameter of growth inhibition zone at 25 ug/ml after 48-96 hr by agar cup diffusion method; conditions: read-out: DIZ
[14] = system: Penicillium; test: Antimicrobial activity against Penicillium wild strain by agar cup diffusion method
[15] = system: Aspergillus clavatus; test: Antimicrobial activity against Aspergillus clavatus MTCC 1323 by agar cup diffusion method
[16] = system: Pseudomonas aeruginosa; test: Antimicrobial activity against Pseudomonas aeruginosa MTCC 1688 assessed as diameter of growth inhibition zone at 25 ug/ml after 18-24 hr by agar cup diffusion method; conditions: read-out: DIZ
[17] = system: Escherichia coli; test: Antimicrobial activity against Escherichia coli MTCC 443 assessed as diameter of growth inhibition zone at 25 ug/ml after 18-24 hr by agar cup diffusion method; conditions: read-out: DIZ
[18] = system: Staphylococcus aureus; test: Antimicrobial activity against Staphylococcus aureus MTCC 96 assessed as diameter of growth inhibition zone at 25 ug/ml after 18-24 hr by agar cup diffusion method; conditions: read-out: DIZ
[19] = system: Streptococcus pyogenes; test: Antimicrobial activity against Streptococcus pyogenes MTCC 442 assessed as diameter of growth inhibition zone at 25 ug/ml after 18-24 hr by agar cup diffusion method; conditions: read-out: DIZ
[20] = system: Klebsiella pneumoniae; test: Antimicrobial activity against Klebsiella pneumoniae MTCC 109 by agar cup diffusion method
[21] = system: Escherichia coli; test: Antimicrobial activity against Escherichia coli MTCC 443 by agar cup diffusion method
[22] = system: Pseudomonas aeruginosa; test: Antimicrobial activity against Pseudomonas aeruginosa MTCC 1688 by agar cup diffusion method
[23] = system: Staphylococcus aureus; test: Antimicrobial activity against Staphylococcus aureus MTCC 96 by agar cup diffusion method
[24] = system: Streptococcus pyogenes; test: Antimicrobial activity against Streptococcus pyogenes MTCC 442 by agar cup diffusion method
[25] = system: Trichophyton rubrum; test: Antimicrobial activity against Trichophyton rubrum MTCC 296 by agar cup diffusion method
[26] = system: Candida albicans; test: Antimicrobial activity against Candida albicans MTCC 227 by agar cup diffusion method
[27] = system: Klebsiella pneumoniae; test: Antimicrobial activity against Klebsiella pneumoniae MTCC 109 assessed as diameter of growth inhibition zone at 250 ug/ml after 18-24 hr by agar cup diffusion method; conditions: read-out: DIZ
[28] = system: Pseudomonas aeruginosa; test: Antimicrobial activity against Pseudomonas aeruginosa MTCC 1688 assessed as diameter of growth inhibition zone at 250 ug/ml after 18-24 hr by agar cup diffusion method; conditions: read-out: DIZ
[29] = system: Escherichia coli; test: Antimicrobial activity against Escherichia coli MTCC 443 assessed as diameter of growth inhibition zone at 250 ug/ml after 18-24 hr by agar cup diffusion method; conditions: read-out: DIZ
[30] = system: Staphylococcus aureus; test: Antimicrobial activity against Staphylococcus aureus MTCC 96 assessed as diameter of growth inhibition zone at 250 ug/ml after 18-24 hr by agar cup diffusion method; conditions: read-out: DIZ
[31] = system: Streptococcus pyogenes; test: Antimicrobial activity against Streptococcus pyogenes MTCC 442 assessed as diameter of growth inhibition zone at 250 ug/ml after 18-24 hr by agar cup diffusion method; conditions: read-out: DIZ
[32] = system: Klebsiella pneumoniae; test: Antimicrobial activity against Klebsiella pneumoniae MTCC 109 assessed as diameter of growth inhibition zone at 100 ug/ml after 18-24 hr by agar cup diffusion method; conditions: read-out: DIZ
[33] = system: Pseudomonas aeruginosa; test: Antimicrobial activity against Pseudomonas aeruginosa MTCC 1688 assessed as diameter of growth inhibition zone at 100 ug/ml after 18-24 hr by agar cup diffusion method; conditions: read-out: DIZ
[34] = system: Escherichia coli; test: Antimicrobial activity against Escherichia coli MTCC 443 assessed as diameter of growth inhibition zone at 100 ug/ml after 18-24 hr by agar cup diffusion method; conditions: read-out: DIZ
[35] = system: Staphylococcus aureus; test: Antimicrobial activity against Staphylococcus aureus MTCC 96 assessed as diameter of growth inhibition zone at 100 ug/ml after 18-24 hr by agar cup diffusion method; conditions: read-out: DIZ
[36] = system: Streptococcus pyogenes; test: Antimicrobial activity against Streptococcus pyogenes MTCC 442 assessed as diameter of growth inhibition zone at 100 ug/ml after 18-24 hr by agar cup diffusion method; conditions: read-out: DIZ
[37] = system: Klebsiella pneumoniae; test: Antimicrobial activity against Klebsiella pneumoniae MTCC 109 assessed as diameter of growth inhibition zone at 50 ug/ml after 18-24 hr by agar cup diffusion method; conditions: read-out: DIZ
[38] = system: Pseudomonas aeruginosa; test: Antimicrobial activity against Pseudomonas aeruginosa MTCC 1688 assessed as diameter of growth inhibition zone at 50 ug/ml after 18-24 hr by agar cup diffusion method; conditions: read-out: DIZ
[39] = system: Escherichia coli; test: Antimicrobial activity against Escherichia coli MTCC 443 assessed as diameter of growth inhibition zone at 50 ug/ml after 18-24 hr by agar cup diffusion method; conditions: read-out: DIZ
[40] = system: Staphylococcus aureus; test: Antimicrobial activity against Staphylococcus aureus MTCC 96 assessed as diameter of growth inhibition zone at 50 ug/ml after 18-24 hr by agar cup diffusion method; conditions: read-out: DIZ
[41] = system: Streptococcus pyogenes; test: Antimicrobial activity against Streptococcus pyogenes MTCC 442 assessed as diameter of growth inhibition zone at 50 ug/ml after 18-24 hr by agar cup diffusion method; conditions: read-out: DIZ
[42] = system: Klebsiella pneumoniae; test: Antimicrobial activity against Klebsiella pneumoniae MTCC 109 assessed as diameter of growth inhibition zone at 25 ug/ml after 18-24 hr by agar cup diffusion method; conditions: read-out: DIZ
[43] = system: Trichophyton rubrum; test: Antimicrobial activity against Trichophyton rubrum MTCC 296 assessed as diameter of growth inhibition zone at 250 ug/ml after 48-96 hr by agar cup diffusion method; conditions: read-out: DIZ
[44] = system: Aspergillus clavatus; test: Antimicrobial activity against Aspergillus clavatus MTCC 1323 assessed as diameter of growth inhibition zone at 250 ug/ml after 48-96 hr by agar cup diffusion method; conditions: read-out: DIZ
[45] = system: Candida albicans; test: Antimicrobial activity against Candida albicans MTCC 227 assessed as diameter of growth inhibition zone at 250 ug/ml after 48-96 hr by agar cup diffusion method; conditions: read-out: DIZ

For O=C(/C=C/c1cccc([N+](=O)[O-])c1)C1C(=O)NC(=S)NC1=O, the zone of inhibition at 250 µg/mL [1] was 22 mm, the zone of inhibition at 100 µg/mL [2] was 21 mm and the zone of inhibition at 100 µg/mL [3] was 22 mm. It also gave a zone of inhibition at 100 µg/mL [4] of 22 mm, a zone of inhibition at 100 µg/mL [5] of 23 mm and a zone of inhibition at 50 µg/mL [6] of 20 mm. It also gave a zone of inhibition at 50 µg/mL [7] of 21 mm, a zone of inhibition at 50 µg/mL [8] of 22 mm and a zone of inhibition at 50 µg/mL [9] of 22 mm. The zone of inhibition at 25 µg/mL [10] was 18 mm, the zone of inhibition at 25 µg/mL [11] was 18 mm and the zone of inhibition at 25 µg/mL [12] was 20 mm. For the same compound, the zone of inhibition at 25 µg/mL [13] was 21 mm, the MFC [14] was 1000 µg/mL (≈ 3130 µM) and the MIC [14] was 1000 µg/mL (≈ 3130 µM). It also gave an MFC [15] of 1000 µg/mL (≈ 3130 µM), an MIC [15] of 1000 µg/mL (≈ 3130 µM) and a zone of inhibition at 25 µg/mL [16] of 14 mm. It also gave a zone of inhibition at 25 µg/mL [17] of 15 mm, a zone of inhibition at 25 µg/mL [18] of 14 mm and a zone of inhibition at 25 µg/mL [19] of 15 mm. For the same compound, the MBC [20] was 100 µg/mL (≈ 313 µM), the MIC [20] was 62.5 µg/mL (≈ 196 µM) and the MBC [21] was 100 µg/mL (≈ 313 µM). For the same compound, the MIC [21] was 100 µg/mL (≈ 313 µM), the MBC [22] was 200 µg/mL (≈ 626 µM) and the MIC [22] was 125 µg/mL (≈ 391 µM). The MBC [23] was 250 µg/mL (≈ 783 µM), the MIC [23] was 200 µg/mL (≈ 626 µM) and the MBC [24] was 250 µg/mL (≈ 783 µM). It also gave an MIC [24] of 200 µg/mL (≈ 626 µM), an MFC [25] of 1000 µg/mL (≈ 3130 µM) and an MIC [25] of 1000 µg/mL (≈ 3130 µM). The MFC [26] was 1000 µg/mL (≈ 3130 µM), the MIC [26] was 1000 µg/mL (≈ 3130 µM) and the zone of inhibition at 250 µg/mL [27] was 18 mm. It also gave a zone of inhibition at 250 µg/mL [28] of 19 mm, a zone of inhibition at 250 µg/mL [29] of 18 mm and a zone of inhibition at 250 µg/mL [30] of 19 mm. It also gave a zone of inhibition at 250 µg/mL [31] of 18 mm, a zone of inhibition at 100 µg/mL [32] of 17 mm and a zone of inhibition at 100 µg/mL [33] of 17 mm. The zone of inhibition at 100 µg/mL [34] was 18 mm, the zone of inhibition at 100 µg/mL [35] was 17 mm and the zone of inhibition at 100 µg/mL [36] was 18 mm. For the same compound, the zone of inhibition at 50 µg/mL [37] was 14 mm, the zone of inhibition at 50 µg/mL [38] was 16 mm and the zone of inhibition at 50 µg/mL [39] was 17 mm. For the same compound, the zone of inhibition at 50 µg/mL [40] was 16 mm, the zone of inhibition at 50 µg/mL [41] was 17 mm and the zone of inhibition at 25 µg/mL [42] was 10 mm. For the same compound, the zone of inhibition at 250 µg/mL [43] was 27 mm, the zone of inhibition at 250 µg/mL [44] was 24 mm and the zone of inhibition at 250 µg/mL [45] was 24 mm.

From ChEMBL document CHEMBL3044736, “Synthesis, characterization, solvatochromic properties, and antimicrobial evaluation of 5-acetyl-2-thioxo-dihydro-pyrimidine-4,6-dione-based chalcones” (2013)
